Results on 14 molecules are retold here after PubChem BioAssay (NCI).

Test systems include M14 melanoma; RXF 393 renal; OVCAR-4 ovarian; BT-549 breast; SK-MEL-2 melanoma; SF-295 CNS; HL-60(TB) leukemia; A549 NSCLC; MOLT-4 leukemia; HCC-2998 colon.
Common to all, as to assay: inhibition of tumour cell growth, NCI panel, 48 h

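96-well plates; 48 h exposure; 5 concentrations. Endpoints by linear interpolation between flanking doses. Not reached: highest tested concentration assigned. GI50 = concentration required for 50% inhibition of growth. TGI: concentration producing complete growth inhibition.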 A value given as a limit tells only on which side of the number the result lay.

For `Cc1ccc(OCC2=NC3S/C(=C/c4ccc([N+](=O)[O-])o4)C(=O)N3N2)cc1` (centres undefined), the TGI came to 23.6 µM in the assay on M14 melanoma; 28.5 µM in the assay on RXF 393 renal; 7.86 µM with OVCAR-4 ovarian; 25.1 µM in the assay on BT-549 breast; 31.7 µM in the assay on SK-MEL-2 melanoma; 30.4 µM with SF-295 CNS. Besides, the figures for the TGI with HL-60(TB) leukemia, in the assay on A549 NSCLC and in the assay with MOLT-4 leukemia were 5.34 µM, 38.9 µM and 6.94 µM, respectively.
In the case of `COc1cc(C2c3cc4c(cc3[C@@H](Nc3ccc(Oc5ccccc5)cc3)C3COC(=O)[C@H]23)OCO4)cc(OC)c1O` (some centres undefined), the TGI in the assay with RXF 393 renal is above 100 µM; in the assay on OVCAR-4 ovarian it was above 100 µM; with SK-MEL-2 melanoma, above 100 µM; in the assay on SF-295 CNS, above 100 µM; with HL-60(TB) leukemia it was 2.23 µM; in the assay with HCC-2998 colon, 13.8 µM. Moreover, the TGI in the assay with A549 NSCLC was above 39.5 µM; in the assay on MOLT-4 leukemia, 2 µM.
As to `CCOC(=O)c1c(-c2cccc(Cl)c2)c(C(=O)OC)c(C)c2sc(C=O)nc12`, the TGI in the assay with M14 melanoma was determined as 31.4 µM; with RXF 393 renal, 44.6 µM; in the assay on OVCAR-4 ovarian, 40.3 µM; with BT-549 breast, 33.7 µM; in the assay with SK-MEL-2 melanoma it was 37.1 µM; with SF-295 CNS it was 32.5 µM. Further, the TGI in the assay on HL-60(TB) leukemia was 44.9 µM; in the assay with A549 NSCLC, above 100 µM; with MOLT-4 leukemia, 48.1 µM.
For the molecule `Cc1cc2ccc(OC(=O)c3ccc(N=C(N)N)cc3)cc2oc1=O`, the TGI with M14 melanoma is 97.7 µM; in the assay on RXF 393 renal, above 100 µM; with OVCAR-4 ovarian, 46.6 µM; with BT-549 breast, 64.6 µM; in the assay on SK-MEL-2 melanoma, 60.9 µM; in the assay with SF-295 CNS, above 100 µM. For the same molecule, the TGI in the assay with HL-60(TB) leukemia is 45.8 µM; in the assay on A549 NSCLC it was above 100 µM; with MOLT-4 leukemia, 54.4 µM.
Consider `COC(=O)c1cc(NC(=O)c2cc(NC(=O)Cc3c[nH]c4ccccc34)cn2C)cn1C`, for which the TGI was above 100 µM with M14 melanoma; above 100 µM in the assay with RXF 393 renal; above 100 µM with OVCAR-4 ovarian; above 100 µM in the assay on BT-549 breast; 68.1 µM in the assay on SK-MEL-2 melanoma; above 100 µM in the assay on SF-295 CNS. The values for the TGI in the assay with HL-60(TB) leukemia, in the assay on A549 NSCLC and in the assay with MOLT-4 leukemia were 95.4 µM, above 100 µM and above 100 µM, respectively.
As to `COC(=O)C1=C(OC(=O)/C=C/c2ccc(Cl)cc2)C(C(=O)OC)[C@]2(O)[C@@H](C(=O)OC)[C@H]1C[C@@H](c1ccccc1)[C@@H]2C(=O)OC` (some centres undefined), the TGI with M14 melanoma is 49.8 µM; in the assay on RXF 393 renal, above 100 µM; in the assay on OVCAR-4 ovarian, above 100 µM; in the assay on BT-549 breast, above 28.5 µM; in the assay with SK-MEL-2 melanoma, above 27.9 µM; in the assay on SF-295 CNS, above 100 µM. In addition, the TGI with HL-60(TB) leukemia is 23.7 µM; with HCC-2998 colon, 46.9 µM; with A549 NSCLC it was above 100 µM; with MOLT-4 leukemia it was above 100 µM.
As for `CS(C)(=O)=Nn1c(=O)n2n(c1=O)C1c3ccccc3C2c2ccccc21`, the TGI with M14 melanoma, with RXF 393 renal, with SK-MEL-2 melanoma, in the assay with SF-295 CNS, with HL-60(TB) leukemia and in the assay on A549 NSCLC was above 100 µM in each case. For the same molecule, the TGI with MOLT-4 leukemia is above 100 µM.
In the case of `COc1ccc(-c2nn(-c3ccc(NC(=O)c4cc(Cl)cc(Cl)c4)cc3)cc2-c2ccncc2)cc1Cl`, the GI50 with M14 melanoma was 2.4 µM; in the assay with RXF 393 renal, 0.362 µM; in the assay with OVCAR-4 ovarian, above 100 µM; in the assay with SK-MEL-2 melanoma it was 2.79 µM; in the assay on SF-295 CNS, 0.695 µM; with HL-60(TB) leukemia, 3.41 µM. For the same molecule, the results for the GI50 with HCC-2998 colon, in the assay on A549 NSCLC and with MOLT-4 leukemia were above 100 µM, above 100 µM and 2.83 µM, respectively. For the same molecule, the TGI with M14 melanoma was 9.08 µM; in the assay with RXF 393 renal it was 1.23 µM; in the assay on OVCAR-4 ovarian, above 100 µM; with SK-MEL-2 melanoma, above 100 µM; in the assay on SF-295 CNS it was 5.49 µM; in the assay with HL-60(TB) leukemia, above 100 µM. The TGI in the assay on HCC-2998 colon, in the assay on A549 NSCLC and in the assay with MOLT-4 leukemia was above 100 µM throughout.
Regarding `Cc1n[n+]([O-])c(C)cc1[N+](=O)[O-]`, the TGI with M14 melanoma turned out to be 30.7 µM; in the assay on RXF 393 renal, 66.3 µM; with OVCAR-4 ovarian, 33.5 µM; with BT-549 breast it was 51.5 µM; in the assay with SK-MEL-2 melanoma, 42.3 µM; in the assay on HCC-2998 colon, 25 µM. The same molecule returned a TGI in the assay with A549 NSCLC of 48.1 µM.
As to `CC1=CC(O)C(C(O)(C(F)(F)F)C(F)(F)F)C(C)(C)C1` (centres undefined), the TGI in the assay with RXF 393 renal, in the assay with OVCAR-4 ovarian, in the assay on BT-549 breast, in the assay on SK-MEL-2 melanoma, in the assay on SF-295 CNS and in the assay with HL-60(TB) leukemia was above 10 µM in each case. Further, the TGI in the assay on HCC-2998 colon, in the assay with A549 NSCLC and in the assay with MOLT-4 leukemia was above 10 µM throughout.
On to `O=C1C2Cc3c(n(C(=O)c4ccccc4)c4ccccc34)CC2C(=O)N1c1ccc(Nc2ccc(N3C(=O)C4Cc5c(n(C(=O)c6ccccc6)c6ccccc56)CC4C3=O)cc2)cc1` (centres undefined), for which the TGI in the assay on M14 melanoma was above 100 µM; in the assay with RXF 393 renal it was above 100 µM; in the assay with OVCAR-4 ovarian, above 100 µM; in the assay on BT-549 breast, above 100 µM; in the assay on SF-295 CNS, above 100 µM; in the assay with HL-60(TB) leukemia, 46.1 µM. For the same molecule, the TGI in the assay with HCC-2998 colon, with A549 NSCLC and with MOLT-4 leukemia was above 100 µM each time.
As for `Cc1ccc2nc(-c3ccc(NC(=O)c4ccc(N)cc4)c(S(=O)(=O)O)c3)sc2c1`, the TGI with M14 melanoma, in the assay on RXF 393 renal, in the assay with OVCAR-4 ovarian, with BT-549 breast, with SF-295 CNS and with HL-60(TB) leukemia was above 100 µM in each case. The TGI with HCC-2998 colon, with A549 NSCLC and in the assay with MOLT-4 leukemia was above 100 µM in each case.
Turning to `N=c1ccc2nc(N)nn(O)c-2c1`, the TGI with M14 melanoma, with OVCAR-4 ovarian, with BT-549 breast, with SK-MEL-2 melanoma, with HL-60(TB) leukemia and with A549 NSCLC was above 100 µM each time. Moreover, the TGI with MOLT-4 leukemia was above 100 µM.
Regarding `O=C(Cc1csc2nc(-c3ccc(Cl)cc3)cn12)N/N=C/c1ccccc1O`, the GI50 is 2.69 µM in the assay on RXF 393 renal; 1.5 µM in the assay on OVCAR-4 ovarian; 5.21 µM in the assay on SF-295 CNS; 1.66 µM in the assay on HL-60(TB) leukemia; 2.4 µM in the assay on HCC-2998 colon; 5.18 µM in the assay on A549 NSCLC. Besides, the GI50 in the assay on MOLT-4 leukemia is 2.17 µM. Further, the TGI with RXF 393 renal is 39.8 µM; with OVCAR-4 ovarian, above 100 µM; in the assay on SF-295 CNS, above 100 µM; in the assay on HL-60(TB) leukemia, 8.51 µM; in the assay with HCC-2998 colon it was above 100 µM; with A549 NSCLC, above 100 µM. Besides, the TGI in the assay with MOLT-4 leukemia was above 100 µM.
